Earlier results as cited in patent US20100137442A2, “Sustained Release Particulate Oral Dosage Forms of (R)-Baclofen and Methods of Treatment” (XenoPort, Inc., priority 2008, published 2010).

Tests used:
[1] = oral baclofen
[2] = animal models
[3] = oral; 2 mg t.i.d equivalent to racemic baclofen 10 mg t.i.d.
[4] = dosed either orally or directly into the colon of a mammal

NCC(CC(=O)O)c1ccc(Cl)cc1 (racemic) [Baclofen, (±)-4-Amino-3-(4-chlorophenyl)butanoic acid]
elimination half-life [1]: 3 to 4 h
absorption following administration into the colon [2]: poorly absorbed

NC[C@H](CC(=O)O)c1ccc(Cl)cc1 [(R)-baclofen, R-(−)-baclofen]
potency relative to orally administered racemic baclofen [3]: about 5 fold

CC(C)C(=O)O[C@@H](OC(=O)NC[C@H](CC(=O)O)c1ccc(Cl)cc1)C(C)C [Compound (4), (3R)-4-{[(1S)-2-methyl-1-(2-methylpropanoyloxy)propoxy]carbonylamino}-3-(4-chlorophenyl)butanoic acid]
bioavailability as (R)-baclofen [4]: high bioavailability
